IC50 and extraction yield data for 13 molecules are collected here from publication PMC9046974, “Construction of a Microfluidic Platform With Core-Shell CdSSe@ZnS Quantum Dot-Encoded Superparamagnetic Iron Oxide Microspheres for Screening and Locating Matrix Metalloproteinase-2 Inhibitors From Fruits of Rosa roxburghii” (Frontiers in Nutrition, 2022).

One assay addresses T1, matrix metalloproteinase-2 (Homo sapiens, UniProt P08253).
T1 construct: purchased not specified for the assay (Sigma Co. recombinant enzyme or a component of the Shanghai Easy Biotech Co. ELISA kit)
T1 sequence (P08253 110-660): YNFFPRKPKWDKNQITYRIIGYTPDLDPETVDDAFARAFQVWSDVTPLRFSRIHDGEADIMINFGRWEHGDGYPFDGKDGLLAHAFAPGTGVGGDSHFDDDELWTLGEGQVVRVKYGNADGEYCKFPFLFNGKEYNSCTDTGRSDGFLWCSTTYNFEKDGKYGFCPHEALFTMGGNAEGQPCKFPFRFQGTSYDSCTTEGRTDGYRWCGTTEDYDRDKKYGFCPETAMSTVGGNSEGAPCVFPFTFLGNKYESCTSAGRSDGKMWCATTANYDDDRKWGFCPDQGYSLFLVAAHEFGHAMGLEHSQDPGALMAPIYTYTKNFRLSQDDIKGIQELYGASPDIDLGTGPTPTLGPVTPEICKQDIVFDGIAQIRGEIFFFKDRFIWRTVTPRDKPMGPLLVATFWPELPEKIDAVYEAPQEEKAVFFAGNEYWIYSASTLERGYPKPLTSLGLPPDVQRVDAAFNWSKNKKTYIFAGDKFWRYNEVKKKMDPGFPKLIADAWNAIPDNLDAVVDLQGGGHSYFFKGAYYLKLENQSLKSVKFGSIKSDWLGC
Nature of the assay: Matrix metalloproteinase-2 inhibitory assay. It counts as biochemical. As to conditions: MMP-2 inhibition, 30 min at 37°C, absorbance 450 nm. Here is the method:
The inhibitory effects of binding ligands were evaluated as below. […] Test components were dissolved in the buffer to yield a gradient of concentrations between 1 and 200 μM. A total of 50 μl of test components and 100 μl of the enzyme solution were added to a 96-well plate and incubated for 30 min at 37°C. Afterward, the solution in the 96-well plate was discarded. The plate was dried on water adsorbing paper. A total of 200 μl of wash solution was added to each well and incubated for 30 s. Again, the solution in the 96-well plate was abandoned. The plate was dried on water adsorbing paper. This step was carried out five times. A total of 50 μl aliquots of solution A and 50 μl aliquots of solution B were added to each well and kept in a dark place for 15 min. As a result, 50 μl aliquots of stopping solution were pipetted into each well. The plate was monitored at the absorbance of 450 nm by using an automatic microplate reader.
`O=C(O[C@@H]1O[C@@H]2COC(=O)c3cc(O)c(O)c(O)c3-c3c(cc(O)c(O)c3O)C(=O)O[C@H]([C@H]1O)[C@@H]2O)c1cc(O)c(O)c(O)c1` [Corilagin] returned an IC50 of 28.6 ± 2.83 µM.

`O=c1oc2c(O)c(O)cc3c(=O)oc4c(O)c(O)cc1c4c23` [Ellagic acid, reference compound] had an IC50 of 37.8 ± 1.96 µM. For the molecule `C[C@@H]1CC[C@]2(C(=O)O[C@@H]3O[C@H](CO)[C@@H](O)[C@H](O)[C@H]3O)CC[C@]3(C)C(=CC[C@@H]4[C@@]5(C)C[C@@H](O)[C@@H](O)C(C)(C)[C@@H]5CC[C@]43C)[C@@H]2[C@]1(C)O` [Kajiichigoside F1], inhibition was half-maximal at 22 ± 2.15 µM (IC50). The molecule `CC1(C)CC[C@]2(C(=O)O)CC[C@]3(C)C(=CC[C@@H]4[C@@]5(C)C[C@H](O)[C@H](O)[C@@](C)(C(=O)O)[C@@H]5CC[C@]43C)[C@@H]2C1` [Medicogenic acid, Medicagenic acid] had an IC50 of 64.1 ± 13.6 µM. Molecule `C[C@@H]1CC[C@]2(C(=O)O[C@@H]3O[C@H](CO)[C@@H](O)[C@H](O)[C@H]3O)CC[C@]3(C)C(=CC[C@@H]4[C@@]5(C)C[C@@H](O)[C@H](O)[C@@](C)(CO)[C@@H]5CC[C@]43C)[C@@H]2[C@]1(C)O` [Niga-ichigoside F1] showed an IC50 of 20.1 ± 1.55 µM. Still for that read-out and setting: under `C[C@@H]1CC[C@]2(C(=O)O[C@@H]3O[C@H](CO)[C@@H](O)[C@H](O)[C@H]3O)CC[C@]3(C)C(=CC[C@@H]4[C@@]5(C)C[C@@H](O)C(=O)C(C)(C)[C@@H]5CC[C@]43C)[C@@H]2[C@]1(C)O` [Potentillanoside A] stands 25.5 ± 3.01 µM. The same measure, in the same setting: with `C=C1[C@H]2C3=CC[C@@H]4[C@@]5(C)C[C@@H](O)[C@H](O)[C@@](C)(CO)[C@@H]5CC[C@@]4(C)[C@]3(C)CC[C@@]2(C(=O)O[C@@H]2O[C@H](CO)[C@@H](O)[C@H](O)[C@H]2O)CC[C@H]1C` [Quadranoside VIII] the figure was 25.9 ± 5.66 µM; with `C[C@@H]1CC[C@]2(C(=O)O[C@@H]3O[C@H](CO)[C@@H](O)[C@H](O)[C@H]3O)CC[C@]3(C)C(=CC[C@@H]4[C@@]5(C)C[C@@H](O)[C@H](O)C(C)(C)[C@@H]5CC[C@]43C)[C@@H]2[C@]1(C)O` [Rosamultin], 20.7 ± 2.06 µM; with `CC1=C2[C@H](/C=C(\C)C(=O)O)CC[C@@H](C)[C@H]2CC1` [Valerenic acid], 82.5 ± 8.87 µM.

On to `COC(=O)[C@@]1(C)CC[C@]2(C(=O)O[C@@H]3O[C@H](CO)[C@@H](O)[C@H](O)[C@H]3O)CC[C@]3(C)C(=CC[C@@H]4[C@@]5(C)CC[C@H](O)[C@@](C)(CO)[C@@H]5CC[C@]43C)[C@@H]2C1` [Zebirioside O], for which it took 23.2 ± 4.49 µM to reach half-maximal inhibition (IC50). On the same count and under the same terms, with Oreganol A the figure was 30.8 ± 2.13 µM; with Peduncloside, 23.2 ± 2.53 µM.

The target of the next assay is T2, MS@PEI@QDs@PEI@MMP-2 (immobilized matrix metalloproteinase-2) (Homo sapiens, UniProt P08253).
T2 construct: purchased Sigma Co; host or cells: HEK 293 cells
T2 sequence (P08253 110-660): T1 sequence (P08253 110-660)
The assay can be described thus: Microfluidic chip-based ligand fishing. It counts as binding. As to conditions: dissociated solution after microfluidic chip-based ligand fishing.
Protocol: All ligand fishing experiments were performed on the microfluidic chip system. The microfluidic chip system consisted of six modules, namely, a microscope stand, a light-emitting diode surface light source, a charge-coupled device (CCD) camera, a temperature controller, an automated x-y-z translation stage (Wuhan Mesovision Biotechnology Co.) for controlling the movement of the microfluidic chip, and four syringe pumps (Baoding Lange Constant Current Pump Co.). Before use, the microfluidic chip was first treated with 1% tween 80 in n-hexadecane (v/v) through port a to make the whole chip surface hydrophobic. […] Under the monitoring of the top-view CCD camera, MS@PEI@QDs@PEI@MMP-2 were infused into the upper left port b, whereas extract of R. roxburghii was infused into upper right port c at an appropriate flow rate to allow the solution to meet the MS@PEI@QDs@PEI @MMP-2 at the junction. The mixture was incubated in the channel for a period. Then, 500 μl aliquots of wash solvent (PBS buffer) were infused into the port d. At the turning point, a small ring magnet trapped the MS@PEI@QDs@PEI@MMP-2. […] The linearity was analyzed by plotting the peak area of the ellagic acid against a series of concentrations (0.009–1.00 mg·ml^−1). The lower limit of quantification was determined as the analytical concentration at an S/N ratio of 10. […] The UV spectra were monitored at 254 nm. […]
`CNC(=O)[C@H](Cc1ccccc1)NC(=O)[C@H](CC(C)C)[C@H](CSc1cccs1)C(=O)NO` [Batimastat] gave an extraction yield of 76.6%.

Broadly, the IC50 is the point on the concentration scale where inhibition reaches its midpoint. Read a high IC50 as weaker potency in that assay.
